Values of other authors, collected in patent US12036329B2, “Mucoadhesive dispersion nanoparticle system and method for production the same” (LEAD BIOTHERAPEUTICS LTD, priority 2018, dated 2024).

Tested on: alpha-adrenergic receptor
Conditions: generally accepted

In the case of `Cc1cc(C(C)(C)C)cc(C)c1CC1=NCCN1` [xylometazoline], the Duration of effect is listed as 5 to 6 h.
